Results published in ChEMBL document CHEMBL2021926, “Serendipity in discovery of proteasome inhibitors” (Bioorg Med Chem Lett, 2012).

Columns and labels:
[1] = Inhibition of chymotrypsin-like activity of human liver 26S proteasome using Suc-LLVY-AMC substrate
[2] = Inhibition of chymotrypsin-like activity of 26S proteasome
[3] = Inhibition of chymotrypsin-like activity of 26S proteasome in human Molt4 cells using MeOSuc-Phe-Leu-Phe-AFC substrate; assay type: cell-based; details: MOLT-4

| IC50 [1] [nM] | EC50 [3] [nM] | Compound | IC50 [2] [nM] |
| --- | --- | --- | --- |
| > 10 | – | CC(C)C[C@H](NC(=O)[C@@H](NC(=O)c1cnccn1)[C@@H](C)O)B1O[C@@H]2C[C@@H]3C[C@@H](C3(C)C)[C@]2(C)O1 | – |
| – | – | CC(C)C[C@@H](C=O)NC(=O)[C@H](CCCN/C(N)=N/[N+](=O)[O-])NC(=O)C(CCCCCCCCN1C(=O)c2ccccc2C1=O)C1CCCC1 (some centres undefined) | 2 |
| > 10 | – | CC(C)C[C@H](NC(=O)[C@@H](NC(=O)c1ccccc1)[C@@H](C)O)B1O[C@@H]2C[C@@H]3C[C@@H](C3(C)C)[C@]2(C)O1 | – |
| > 10 | – | COCCOCCOCC(=O)N[C@H](C(=O)N[C@@H](CC(C)C)B1O[C@@H]2C[C@@H]3C[C@@H](C3(C)C)[C@]2(C)O1)[C@@H](C)O | – |
| 1 | 120 | CC(C)C[C@H](NC(=O)C(NC(=O)[C@H](CC(C)C)NC(=O)OCc1ccccc1)C(C)O)B1O[C@@H]2C[C@@H]3C[C@@H](C3(C)C)[C@]2(C)O1 (single isomer, unassigned) | – |
| > 10 | – | CC(C)C[C@H](NC(=O)[C@@H](N)[C@@H](C)O)B1O[C@@H]2C[C@@H]3C[C@@H](C3(C)C)[C@]2(C)O1 | – |
| > 10 | – | CCCCCC(=O)N[C@H](C(=O)N[C@@H](CC(C)C)B1O[C@@H]2C[C@@H]3C[C@@H](C3(C)C)[C@]2(C)O1)[C@@H](C)O | – |
| – | – | CC(C)C[C@H](NC(=O)[C@H](CCCN/C(N)=N/[N+](=O)[O-])NC(=O)C(CCCCCCCCC#N)C1CCCC1)C(=O)C(=O)NCCNS(=O)(=O)c1ccccc1 (some centres undefined) | 1 |
| – | – | CC(C)C[C@@H](C=O)NC(=O)[C@H](CCCN/C(N)=N/[N+](=O)[O-])NC(=O)C(CCCCCCCCC#N)C1CCCC1 (some centres undefined) | 6 |
| > 10 | – | CC(C)C[C@H](NC(=O)[C@@H](NC(=O)OC(C)(C)C)[C@@H](C)O)B1O[C@@H]2C[C@@H]3C[C@@H](C3(C)C)[C@]2(C)O1 | – |
| 7 | 100 | CC(C)C[C@H](NC(=O)[C@@H](NC(=O)C(CCCCCCCCN1C(=O)c2ccccc2C1=O)C1CCCC1)[C@@H](C)O)B1O[C@@H]2C[C@@H]3C[C@@H](C3(C)C)[C@]2(C)O1 (mixture of isomers) | – |
| – | – | CC(C)C[C@H](NC(=O)[C@H](CCCN/C(N)=N/[N+](=O)[O-])NC(=O)C(CCCCCCCCC#N)C1CCCC1)B1OC(C)(C)C(C)(C)O1 (some centres undefined) | 6 |
| > 10 | – | CC(C)C[C@H](NC(=O)[C@@H](NC(=O)OCc1ccccc1)[C@@H](C)O)B1O[C@@H]2C[C@@H]3C[C@@H](C3(C)C)[C@]2(C)O1 | – |
| 4 | 21 | CC(C)C[C@H](NC(=O)[C@H](Cc1ccccc1)NC(=O)c1cnccn1)B(O)O [BORTEZOMIB] | – |

| Compound | IC50 [1] [nM] | EC50 [3] [nM] | IC50 [2] [nM] |
| --- | --- | --- | --- |
| CC(C)C[C@H](NC(=O)[C@H](CCCN/C(N)=N/[N+](=O)[O-])NC(=O)C(CCCCCCCCN1C(=O)c2ccccc2C1=O)C1CCCC1)B1OC2C[C@@H]3C[C@@H](C3(C)C)[C@]2(C)O1 (some centres undefined) | 3.5 | 70 | – |
